According to patent publication US9499550B2 (BRISTOL-MYERS SQUIBB COMPANY, priority 2012, dated 2016):
Where two headings read alike, the source gives them in different places.

Legend:
[1] = tested on: HCV genotype 1a (H77 strain) replicon in HUH-7 cells; test: HCV replicon luciferase reporter assay, genotype 1a; assay type: cell-based; conditions: Hepatitis C virus, Huh-7, 72 h, HCV genotype 1a replicon luciferase, 3 days incubation
Procedure, shortened: (§1)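 Replicon inhibition for both genotypes was measured as Renilla luciferase signal (EnduRen, 7.5 μM final, 2 h) after 3-day, 37° C exposure of replicon-bearing HUH-7 cells in 4% FCS DMEM, 0.5% DMSO. The 1b construct carries S1179I; the 1a H77 construct carries P1496L and S2204I. Twenty-point, 3-fold dilutions were fitted four-parametrically for EC50, and CC50 was taken from multiplexed Cell Titer-Blue.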

[2] = tested on: HCV genotype 1b (Con1) replicon in HUH-7 cells; test: HCV replicon luciferase reporter assay, genotype 1b; assay type: cell-based; conditions: Hepatitis C virus, Huh-7, 72 h, HCV genotype 1b replicon luciferase, 3 days incubation
Procedure, shortened: as §1

| SMILES | EC50 ([1]; read-out: LE_1a (EC50, range)) [nM] | EC50 ([2]; read-out: LE_1b (EC50, range)) [nM] | EC50 ([1]; read-out: LE_1a (EC50)) [nM] | EC50 ([2]; read-out: LE_1b (EC50)) [nM] |
| --- | --- | --- | --- | --- |
| COc1cc2cc(-c3ccc(OC(C)C)cc3)nc(O[C@@H]3C[C@H]4C(=O)N[C@]5(C(=O)NS(=O)(=O)C6(C)CC6)C[C@H]5/C=C\CC[C@H](C)C[C@@H](C)[C@H](NC(=O)O[C@@H]5C[C@@H]6C[C@@H]6C5)C(=O)N4C3)c2cc1F [Compound 3191, (1R,3r,5S)-bicyclo[3.1.0]hexan-3-yl((2R,6S,7R,9S,13aS,14aR,16aS,Z)-2-((7-fluoro-3-(4-isopropoxyphenyl)-6-methoxyisoquinolin-1-yl)oxy)-7,9-dimethyl-14a-(((1-methylcyclopropyl)sulfonyl)carbamoyl)-5,16-dioxo-1,2,3,5,6,7,8,9,10,11,13a,14,14a,15,16,16a-hexadecahydrocyclopropa[e]pyrrolo[1,2-a][1,4]diazacyclopentadecin-6-yl)carbamate] | 4.82 to 103 | < 5.46 | – | – |
| COc1cc2cc(-c3ccc(OC(C)C)cc3)nc(O[C@@H]3C[C@H]4C(=O)N[C@]5(C(=O)NS(=O)(=O)C6(C)CC6)C[C@H]5/C=C\CC[C@@H](C)C[C@@H](C)[C@H](NC(=O)O[C@@H]5C[C@@H]6C[C@@H]6C5)C(=O)N4C3)c2cc1F [Compound 3192, (1R,3r,5S)-bicyclo[3.1.0]hexan-3-yl((2R,6S,7R,9R,13aS,14aR,16aS,Z)-2-((7-fluoro-3-(4-isopropoxyphenyl)-6-methoxyisoquinolin-1-yl)oxy)-7,9-dimethyl-14a-(((1-methylcyclopropyl)sulfonyl)carbamoyl)-5,16-dioxo-1,2,3,5,6,7,8,9,10,11,13a,14,14a,15,16,16a-hexadecahydrocyclopropa[e]pyrrolo[1,2-a][1,4]diazacyclopentadecin-6-yl)carbamate] | < 5.46 | < 5.46 | – | – |
| CCOc1cc2cc(OC)ccc2c(O[C@@H]2C[C@H]3C(=O)N[C@]4(C(=O)NS(=O)(=O)C5(C)CC5)C[C@H]4/C=C\CC[C@H](C)C[C@@H](C)[C@H](NC(=O)OC(C)(C)C)C(=O)N3C2)n1 [Compound 3193, tert-butyl ((2R,6S,7R,9S,13aS,14aR,16aS,Z)-2-((3-ethoxy-6-methoxyisoquinolin-1-yl)oxy)-7,9-dimethyl-14a-(((1-methylcyclopropyl)sulfonyl)carbamoyl)-5,16-dioxo-1,2,3,5,6,7,8,9,10,11,13a,14,14a,15,16,16a-hexadecahydrocyclopropa[e]pyrrolo[1,2-a][1,4]diazacyclopentadecin-6-yl)carbamate] | 1.01 to 5 | 0.51 to 1 | – | – |
| CCOc1cc2cc(OC)ccc2c(O[C@@H]2C[C@H]3C(=O)N[C@]4(C(=O)NS(=O)(=O)C5(C)CC5)C[C@H]4/C=C\CC[C@@H](C)C[C@@H](C)[C@H](NC(=O)OC(C)(C)C)C(=O)N3C2)n1 [Compound 3194, tert-butyl ((2R,6S,7R,9R,13aS,14aR,16aS,Z)-2-((3-ethoxy-6-methoxyisoquinolin-1-yl)oxy)-7,9-dimethyl-14a-(((1-methylcyclopropyl)sulfonyl)carbamoyl)-5,16-dioxo-1,2,3,5,6,7,8,9,10,11,13a,14,14a,15,16,16a-hexadecahydrocyclopropa[e]pyrrolo[1,2-a][1,4]diazacyclopentadecin-6-yl)carbamate] | 0.51 to 1 | 0.1 to 0.5 | 0.62 | 0.44 |
| COc1ccc2c(O[C@@H]3C[C@H]4C(=O)N[C@]5(C(=O)NS(=O)(=O)C6(C)CC6)C[C@H]5/C=C\CC[C@H](C)C[C@@H](C)[C@H](NC(=O)OC(C)(C)C)C(=O)N4C3)nc(OC(C)C)cc2c1 [Compound 3195, tert-butyl ((2R,6S,7R,9S,13aS,14aR,16aS,Z)-2-((3-isopropoxy-6-methoxyisoquinolin-1-yl)oxy)-7,9-dimethyl-14a-(((1-methylcyclopropyl)sulfonyl)carbamoyl)-5,16-dioxo-1,2,3,5,6,7,8,9,10,11,13a,14,14a,15,16,16a-hexadecahydrocyclopropa[e]pyrrolo[1,2-a][1,4]diazacyclopentadecin-6-yl)carbamate] | 1.01 to 5 | 0.51 to 1 | – | – |
